The results in this text go back to patent US8476449B2, “Radioactive iodine labeled organic compound or salt thereof” (Nihon Medi-Physics Co., Ltd., priority 2010, dated 2013).

As usually defined, the Ki is the dissociation constant of the complex between target and ligand, obtained from inhibition or displacement.

What all share (assay type): binding
In experiment [1] the target is T1, tau protein aggregate (Homo sapiens, UniProt P10636). Description: Inhibition constant toward tau protein aggregate (thioflavin S competition). The conditions noted are these: for Ki ratios of Aβ42/Tau: ratio of Ki Aβ42 aggregate to Ki tau protein aggregate; for Ki: thioflavin S as ligand, tau protein aggregate, read-out: Ki values (Tau in Table 5). Set-up: made in house; host or cells: E. coli BL21. On the procedure: (§1) First, the dissociation constant (Kd) of thioflavin S used as a competitive ligand was first determined by a saturation experiment in order to calculate inhibition constants of compounds 1 to 3. That is, a mixed solution of a 10 vol % ethanol aqueous solution of thioflavin S (0.1-12.8 μmol/L) and the tau protein aggregate (final concentration 0.2 μmol/L, prepared in Example 9) or the Aβ42 aggregate (final concentration 2.2 μmol/L, prepared in Example 11) was incubated for 30 minutes, and the fluorescence intensity was measured using a fluorescence plate reader (FLEX STATION, Molecular Devices). The fluorescence intensity was measured at Ex 440 nm and Em 510 nm for the tau protein aggregate and Ex 440 nm and Em 490 nm for the Aβ42 aggregate. A saturation curve was prepared using GraphPad Prism, and the Kd value for thioflavin S was calculated.
T1 sequence (P10636 1-441 isoform P10636-8): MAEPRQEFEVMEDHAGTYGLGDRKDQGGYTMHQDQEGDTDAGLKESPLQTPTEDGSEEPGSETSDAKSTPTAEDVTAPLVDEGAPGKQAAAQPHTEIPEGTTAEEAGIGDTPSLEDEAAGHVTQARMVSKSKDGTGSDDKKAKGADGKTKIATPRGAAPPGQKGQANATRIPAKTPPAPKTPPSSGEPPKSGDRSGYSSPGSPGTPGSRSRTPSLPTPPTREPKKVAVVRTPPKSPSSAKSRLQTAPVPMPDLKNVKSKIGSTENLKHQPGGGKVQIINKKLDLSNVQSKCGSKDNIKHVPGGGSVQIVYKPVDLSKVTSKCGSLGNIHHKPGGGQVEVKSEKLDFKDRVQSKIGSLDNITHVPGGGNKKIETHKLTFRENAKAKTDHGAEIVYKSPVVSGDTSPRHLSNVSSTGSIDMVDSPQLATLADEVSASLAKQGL
(§2) Next, a mixed solution of a 10 volt ethanol aqueous solution of thioflavin S (1.5 μmol/L) and a test compound (0.6 nmol/L to 10 μmol/L) together with the tau protein aggregate (final concentration 0.2 μmol/L, prepared in Example 9) or the Aβ42 aggregate (final concentration 10 μg/ml, prepared in Example 11) was incubated for 30 minutes. Then, the fluorescence intensities at Ex 440 nm and Em 510 nm for the tau protein aggregate and Ex 440 nm and Em 490 nm for the Aβ42 aggregate were measured using a fluorescence plate reader (FLEX STATION, Molecular Devices). GraphPad Prism inhibition curves were prepared, and Ki values of compounds 1 to 3 were determined using the above obtained Kd value of thioflavin S.

Another experiment concerns the target T2, Aβ42 aggregate (Homo sapiens, UniProt P05067).
T2 construct: Aβ (1-42) peptide; purchased Peptide Institute, Inc
Description: Inhibition constant toward Aβ42 aggregate (thioflavin S competition). The conditions noted are these: thioflavin S as ligand, read-out: Ki values (Aβ42 in Table 5). On the procedure:
as §1, §2

The target of experiment [2] is T1, tau protein aggregate. Description: Competitive inhibition experiment using thioflavin S (ThS) as ligand, fluorescence spectra. Also on record: made in house; host or cells: E. coli BL21. The conditions noted are these: tau protein aggregate 0.2 μmol/L, thioflavin S 1.5 μmol/L, compound 0.1-2.7 μmol/L, excitation 440 nm. On the procedure: Tau-441 expression vector (provided by Graduate School of Medicine, Osaka City University) was transferred to E. coli (BL21), culturing was carried out, and a tau protein was extracted and purified. Heparin (0.1 mg/mL) was added to the purified tau protein (1 mg/mL), and incubation in a 50 mmol/L MES buffer (pH 6.8, 100 mmol/L sodium chloride, 0.5 mmol/L EGTA) at 37° C. was carried out for 3 days, thus preparing an aggregate. Formation of the tau protein aggregate was confirmed by SDS-PAGE and thioflavin S fluorescence assay.
A mixed solution (550 μL) of the tau protein aggregate (final concentration […]) thus prepared, thioflavin S (Sigma Aldrich, final concentration 1.5 μmol/L), and compound 1, compound 2, or compound 3 solution at various concentrations (each having final concentrations of 0 to 2.7 μmol/L) was incubated for 30 minutes, and fluorescence spectra at an excitation wavelength of 440 nm were measured using a fluorescence spectrometer (RF-5300PC, Shimadzu Corporation).
In FIGS. 3 to 5, a is a fluorescence spectrum of a sample (sample I) containing only thioflavin S at 1.5 μmol/L, and b is a fluorescence spectrum of a sample (sample II) that is 0.2 μmol/L of the tau protein aggregate in sample I. In FIG. 3, c is a fluorescence spectrum of a sample that is 0.1 μmol/L of compound 1 in sample II, d is a fluorescence spectrum of a sample that is 0.3 μmol/L of compound 1 in sample II, e is a fluorescence spectrum of a sample that is 0.9 μmol/L of compound 1 in sample II, and f is a fluorescence spectrum of a sample that is 2.7 μmol/L of compound 1 in sample II. In FIG. 4, c is a fluorescence spectrum of a sample that is 0.1 μmol/L of compound 2 in sample II, d is a fluorescence spectrum of a sample that is 0.3 μmol/L of compound 2 in sample II, e is a fluorescence spectrum of a sample that is 0.9 μmol/L of compound 2 in sample II, and f is a fluorescence spectrum of a sample that is 2.7 μmol/L of compound 2 in sample II. […]

T2 sequence (P05067 672-713 limits assumed): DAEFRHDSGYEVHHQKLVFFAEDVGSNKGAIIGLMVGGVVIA

As for `CCOC(=O)CN1C(=O)/C(=C/c2ccc(-c3cccc(I)c3)o2)SC1=S` [Compound 1, (Z)-ethyl-2-(5-((5-(3-iodophenyl)furan-2-yl)methylene)-4-oxo-2-thioxothiazolidin-3-yl)acetate], the “Ki ratios of Aβ42/Tau” value on tau protein aggregate [1] is recorded as 1.54. Besides, the Ki turned out to be 489 nM on tau protein aggregate [1] and 752 nM at Aβ42 aggregate. Also, on tau protein aggregate [2], the “Inhibition of binding of tau protein aggregate to thioflavin S (fluorescence spectra)” value is recorded as “inhibition of binding of a tau protein aggregate to thioflavin S”.
In the same order, the values of `CCOC(=O)CN1C(=O)/C(=C/c2ccc(-c3cccc(I)c3)o2)NC1=S` [Compound 2, (Z)-ethyl-2-(4-((5-(3-iodophenyl)furan-2-yl)methylene)-5-oxo-2-thioxoimidazolidin-1-yl)acetate] are 5.57, 155 nM, 864 nM and “inhibition of binding of a tau protein aggregate to thioflavin S”.
